{"source": "a melting point compilation (Tetko et al.; mined from patent text by program, amines drawn as free bases though some values may be those of a salt)", "data": [{"units": {"melting point": "°C"}, "values": [{"smiles": "O=C(CBr)Nc1ccc(I)cc1C(=O)c1ccccc1Cl", "melting point": "150 to 152"}, {"smiles": "CNC(=C[N+](=O)[O-])NCCSCc1csc(CO)n1", "melting point": "131 to 132"}, {"smiles": "CN1CC(=O)N(C(c2ccccc2)c2ccccc2)C1=S", "melting point": "139 to 141"}, {"smiles": "CS(=O)(=O)c1ccc(C(=O)Cl)c(Cl)c1-c1nccs1", "melting point": "97 to 98"}, {"smiles": "[N-]=[N+]=NCC1=C(C(=O)O)N2C(=O)C(NC(=O)Cc3csc(=O)s3)C2SC1", "note": "(centres undefined)", "melting point": 160}, {"smiles": "O=C(NCCc1ccc(O)cc1)c1cccnc1", "melting point": "179 to 181"}, {"smiles": "O=C1C=C2CN(C(C(=O)C3CC3)c3ccccc3F)CCC2S1", "note": "(centres undefined)", "melting point": "123 to 125"}, {"smiles": "COc1ccc2cc([C@H](C)C(=O)OCC(=O)N(C)CC(=O)OCCCO)ccc2c1", "melting point": "41 to 43"}, {"smiles": "CC(=O)OCC(O)(CN(C)S(=O)(=O)c1ccc(Cl)c(C)c1)c1cccc(Cl)n1", "note": "(centres undefined)", "melting point": "92 to 93"}, {"smiles": "O=C(NCc1ccc(Cl)cc1)c1cn2c(CO)cc3cc(CN4CCOCC4)cc(c1=O)c32", "melting point": "210 to 212"}, {"smiles": "O=C(O)c1nc(Oc2cccc(C(F)(F)F)c2)ccc1Cl", "melting point": "90 to 92"}, {"smiles": "CCOC(=O)c1cn(CC2CC2)c2cc(-n3cccc3)c(F)cc2c1=O", "melting point": "125 to 127"}, {"smiles": "CSc1ccc(C(=O)c2cc(-c3cccnc3)c(N3CCOCC3)s2)cc1", "melting point": 127}, {"smiles": "CCc1[nH]c2cccc3c2c1CC1C3CC(NC(=O)N(CC)CC)CN1C", "note": "(centres undefined)", "melting point": "165 to 168"}, {"smiles": "COc1ccc2nc(NC(=O)c3nc4ccccc4[nH]3)sc2c1", "melting point": 246}, {"smiles": "C=CC(=O)Nc1cccc2cccnc12", "melting point": "76.5 to 78.5"}, {"smiles": "N#CC(C#N)=C1N(CCN2CCCCC2)c2ccccc2N1CCN1CCCCC1", "melting point": "127 to 128"}, {"smiles": "c1cc(-c2ccn3cnnc3c2)ccn1", "melting point": "194 to 196"}, {"smiles": "COc1ccc(S(=O)(=O)NC(CCF)C(=O)OC(C)(C)C)cc1", "note": "(centres undefined)", "melting point": "89 to 90"}, {"smiles": "CC(C)[C@H]1[C@@H](O)CC(=O)N1c1ccc(C#N)c(Cl)c1", "melting point": "100 to 102"}, {"smiles": "COc1ccc(C#CC(=Nc2ccc(OC)cc2)N2CCN(Cc3ccc(C)cc3)CC2)cc1", "melting point": 107}, {"smiles": "CCc1c(Cl)nc(NC=O)nc1Cl", "melting point": "116 to 118"}, {"smiles": "O=[N+]([O-])c1cc(C(F)(F)F)ccc1SCc1ccccc1", "melting point": "132 to 136"}, {"smiles": "O=C(O)CCS(=O)(=O)CCCl", "melting point": "138 to 139"}, {"smiles": "Oc1ccc(-c2cccc(OC3SCC(O)C(O)C3O)c2)cn1", "note": "(centres undefined)", "melting point": 200}, {"smiles": "CCCC(=O)OC1=C(c2ccc(OC)cc2)S(=O)c2ccccc2-n2cccc21", "note": "(centres undefined)", "melting point": "113 to 115"}, {"smiles": "O=C(c1ccc([N+](=O)[O-])cc1)N1Cc2cccn2Cc2ccccc21", "melting point": "188 to 190"}, {"smiles": "CC(C)(C)OC(=O)NCCc1ccc(O)cc1", "melting point": "61 to 62"}, {"smiles": "Cc1ccoc1C(=O)Nc1ccc(-n2nc(C(F)(F)F)cc2C(F)(F)F)cc1", "melting point": "119 to 120"}, {"smiles": "COCc1c(C=O)ncc2c1c1c(OCc3ccccc3)cccc1n2S(=O)(=O)c1ccc(C)cc1", "melting point": "125 to 127"}, {"smiles": "CN1Cc2c(-c3nc(CN4C(=O)c5ccccc5C4=O)no3)ncn2-c2ccccc2C1=O", "melting point": "239 to 240"}, {"smiles": "O=C(Nc1ccc(F)cc1)Nc1cccc(OCc2ccccc2)c1", "melting point": "187 to 189"}, {"smiles": "CC(NC1=Nc2ccccc2C(=O)N(C)C1)c1ccccc1", "note": "(centres undefined)", "melting point": "150 to 151"}, {"smiles": "C/C(=C\\C(N)=O)c1ccc2c(c1)C(C)(C)OC(=O)N2", "melting point": "198 to 200"}, {"smiles": "CC(=O)OC1CCC2C3CCC4=CC(=O)C(I)CC4(C)C3CCC12C", "note": "(centres undefined)", "melting point": 92}, {"smiles": "Clc1ccc(-c2n[nH]c(SC3CCNCC3)c2-c2ccncc2)cc1", "melting point": 211}, {"smiles": "CCOc1ccc(C(=O)NC2N(C)C(c3ccc(F)cc3)=NC2(C(F)(F)F)C(F)(F)F)cc1", "note": "(centres undefined)", "melting point": "115 to 116"}, {"smiles": "c1ccc(CCN2CCN(c3n[nH]c4c3CCCc3ccccc3-4)CC2)cc1", "melting point": "147 to 148"}, {"smiles": "CC(C)(C)OC(=O)Nc1cc(N2CCC(OCCOC3CCCCO3)CC2)c(-c2ccc(F)cc2)cc1[N+](=O)[O-]", "note": "(racemic)", "melting point": "144 to 146"}, {"smiles": "CN(C)c1nn2nnnc2c2c1CCCC2", "melting point": "239 to 240"}, {"smiles": "CCCCCc1cc(-c2ccc(F)cc2C(C)O)c(C(C)C)nc1C(C)C", "note": "(centres undefined)", "melting point": "84 to 86"}, {"smiles": "Cc1cc(-c2cc(C(F)F)n3ncc(C(=O)O)c3n2)ccc1Cl", "melting point": 238}, {"smiles": "Cc1nc(N2CCN(Cc3ccc(F)c(F)c3)C2=O)sc1C(N)=O", "melting point": "221 to 223"}, {"smiles": "CNC(=O)C1=CC(CF)(CF)Oc2ccc([N+](=O)[O-])cc21", "melting point": "178 to 179"}, {"smiles": "O=C1c2ccccc2C(=O)N1CCN1CCN(C(c2ccc(F)cc2)c2ccc(F)cc2)CC1", "melting point": "125 to 126"}, {"smiles": "C=CCCCCCCCCCOc1ccc(-c2ccc(O)cc2)cc1", "melting point": "135 to 136"}, {"smiles": "Cc1cc(C)c(C(=O)P(=O)(c2ccccc2)c2ccccc2)c(C)c1Cl", "melting point": "125 to 126"}, {"smiles": "OCCCCNc1nnc(-c2ccc(F)c(F)c2Nc2ccc(I)cc2F)o1", "melting point": "82 to 83"}, {"smiles": "Cc1cc(C#N)cc(CC#N)c1", "melting point": "63 to 64"}, {"smiles": "CCOCc1nc2c(N)nc3cccnc3c2n1Cc1ccccc1", "melting point": "173 to 174"}, {"smiles": "COc1ccc2c(c1)C(=O)c1nc3ccccc3c(=O)n1-2", "melting point": "268 to 269"}, {"smiles": "O=C(Oc1cc(F)ccc1F)c1cc2ccccc2oc1=O", "melting point": "134 to 137"}, {"smiles": "CCOC(=O)c1cc(Br)c(C(=O)OCC)cc1Cl", "melting point": 125}, {"smiles": "Cc1cccc(C)c1OC(C)C(=O)OC1CC(O)C=C2C=CC(C)C(CCC3CC(O)CC(=O)O3)C21", "note": "(mixture of isomers)", "melting point": "85 to 88"}, {"smiles": "CC(C)OC1CCC(=O)N1S(=O)(=O)C=Cc1ccccc1", "note": "(centres undefined)", "melting point": "92 to 94"}, {"smiles": "CS(=O)(=O)c1ccc(C(CC2CCCC2)C(=O)Nc2nc(CO)cs2)cc1", "note": "(centres undefined)", "melting point": "124 to 126"}, {"smiles": "CCCC(=O)c1cnc2cc(Nc3ccc(O)cc3C)sc2c1", "melting point": "228 to 230"}, {"smiles": "COc1ccccc1NC(=O)Nc1ccc(CC(=O)OC(C)(C)C)cc1C", "melting point": "157 to 158"}, {"smiles": "O=c1c2ccc(Cl)cc2[nH]c2c(=O)n(-c3ccc(Cl)cc3Cl)nc(O)c12", "melting point": "342 to 343"}, {"smiles": "N=C(N)NCCc1nccs1", "melting point": "130 to 135"}, {"smiles": "CCc1nc2c(c(C)c(C)n3nnnc23)n1CCOCCNS(=O)(=O)CCCCl", "melting point": "126 to 129"}, {"smiles": "CCC(=O)Nc1ccc2oc3c(c2c1)CCCC3", "melting point": "164 to 165"}, {"smiles": "C=C(C)C(=O)N[C@@H](CCC(=O)O)C(=O)O", "melting point": "128 to 130"}, {"smiles": "CCCc1c(OCC(O)COc2ccc(C(=O)O)cc2Br)ccc(C(C)=O)c1O", "note": "(centres undefined)", "melting point": "93 to 95"}, {"smiles": "N#CCSc1nc(NCc2ccc3c(c2)OCO3)cc(-c2ccccc2)n1", "melting point": "140 to 142"}, {"smiles": "O=C(O)Cc1sc2nc3ncccc3n2c1-c1ccc(Cl)cc1", "melting point": "250 to 252"}, {"smiles": "CC(C)(Oc1ccc(CCC(=O)c2ccc(-c3ccc(Br)cc3)s2)c(Cl)c1Cl)C(=O)O", "melting point": "155 to 157"}, {"smiles": "Nc1ccc(-c2nc(N3CCOCC3)c3sc(C(=O)NCC4CCN(c5ncc(C(=O)NO)cn5)CC4)cc3n2)cc1", "melting point": "232 to 238"}, {"smiles": "CCCCCC1COc2cc(C3COC(C4COc5c(cc(F)c(C#N)c5F)C4)OC3)c(F)cc2C1", "note": "(centres undefined)", "melting point": 111}, {"smiles": "c1csc(-c2cn([C@H]3CN4CCC3CC4)nn2)c1", "melting point": 137}, {"smiles": "CCC(CSC(=S)N(C)C)[N+](=O)[O-]", "note": "(centres undefined)", "melting point": 23}, {"smiles": "NC(=O)Cc1cc(Oc2ccc3c(ccn3C(=O)Nc3ccc(N4CCOCC4)c(C(F)(F)F)c3)c2)ncn1", "melting point": "272 to 275"}, {"smiles": "O=S(=O)(Nc1ccc2c(OCc3ccc(Cl)cc3Cl)cccc2c1)C(F)(F)F", "melting point": "142 to 144"}, {"smiles": "Cc1cc(S(N)(=O)=O)cs1", "melting point": "102 to 104"}, {"smiles": "COc1ccc2c(=O)c3c(Cl)ccc([N+](=O)[O-])c3oc2c1", "melting point": "211 to 213"}, {"smiles": "COC(=O)c1cc(C)cc(OC)c1C1=CC(=O)c2c(O)cccc2C1=O", "melting point": "140 to 143"}, {"smiles": "COc1cccc(Oc2cc(-c3ccc(C(F)(F)F)cc3)ccn2)c1", "melting point": "77.5 to 79.6"}, {"smiles": "CCC1N=C(c2ccccc2Cl)c2cc(CCC(=O)OC)sc2NC1=O", "note": "(centres undefined)", "melting point": "187 to 189"}, {"smiles": "CCCCC(CC)C(c1ccc(O)cc1)c1ccc(O)cc1", "note": "(centres undefined)", "melting point": 87}, {"smiles": "CCOC(=O)c1cc(OC)c(Cc2cnc(N)nc2N)c(OC)c1", "melting point": "201 to 202"}, {"smiles": "CC(=O)NNc1ccnc2c(NC(=O)c3ccccc3[N+](=O)[O-])cccc12", "melting point": "232 to 235"}, {"smiles": "COCC(=O)Nc1cc(C(N)=O)cc(NC(=O)COC)c1Cl", "melting point": "208 to 209"}, {"smiles": "COC(=O)c1cnc(F)cn1", "melting point": "55.6 to 56.7"}, {"smiles": "COCOc1ccc(Nc2ncccc2[N+](=O)[O-])cc1", "melting point": "80 to 81"}, {"smiles": "COc1ccc2cc3c(Cl)nn(CCN(C)C)c3nc2c1", "melting point": "86 to 88"}, {"smiles": "Cc1ncc(CCCOc2c(C)cc(-c3nnn(C)n3)cc2C)s1", "melting point": "86 to 88"}, {"smiles": "COc1cccc(CC(=O)O)c1OCCCc1cn(-c2ccc(C(F)(F)F)nn2)nc1C(C)(C)C", "melting point": "131 to 132"}, {"smiles": "O=S1(=O)CC(=Cc2ccc(Cl)cc2)C2=NN(c3ccccc3)C(c3ccc(Cl)cc3)C2C1", "note": "(centres undefined)", "melting point": "246 to 249"}, {"smiles": "O=C(C[C@H](C(=O)N[C@H](COC(=O)OCc1ccccc1)c1ccccc1)n1ccc(-c2ccc(-c3ccncc3)cc2)c1)OCc1ccccc1", "melting point": "138 to 140"}, {"smiles": "CN(C)c1cc2c(cc1Cl)NC(=O)CC(c1cccc(-c3nc(CN4CCOCC4)cs3)c1)=N2", "melting point": "138 to 143"}, {"smiles": "CC1(C)CON(Cc2ccc(N3C(=O)c4ccccc4C3=O)cc2Br)C1=O", "melting point": "158 to 159"}, {"smiles": "CCc1c(Cc2[nH]c(C=O)c(C)c2CCCOC(C)=O)[nH]c(Cc2[nH]c(C=O)c(C)c2CCCOC(C)=O)c1CC", "melting point": "179 to 181"}, {"smiles": "COc1ccc(N2C[C@](C)(COc3ccc(C#N)cc3)OC2=O)cc1", "melting point": "147 to 149"}, {"smiles": "O=c1ccc(-c2c(-c3ccccc3)nn3ccccc23)nn1C1CCN(Cc2ccccc2)CC1", "melting point": "184 to 185"}, {"smiles": "COc1ccc(CN2C(=O)[C@H](NC(=O)COc3ccccc3)[C@@H]2c2ccccc2C2OCCO2)c(OC)c1", "note": "(relative stereo)", "melting point": "137 to 138"}, {"smiles": "O=C(O)C1CCC2CCCCC2N1", "note": "(centres undefined)", "melting point": "173 to 176"}, {"smiles": "CSc1c(F)ccc2onc(OCCNC(=O)OC(C)(C)C)c12", "melting point": "91 to 92"}, {"smiles": "CCCCCCCCCCCCCCCCNc1ccc(C(=O)NN)cc1", "melting point": "154 to 156"}, {"smiles": "CCC(C)N(C)C(=O)c1cc(-c2ccc(C)c(C)c2)c2sccc2c1", "note": "(centres undefined)", "melting point": 120}]}]}
